Where “and” joins values, the source holds several entries; their conditions need not be identical. Equal values may be shown once.
Conditions: for mass density: Buoyancy - hydrostatic balance with magnetic suspension - two sinkers; for vapor or sublimation pressure: Closed cell (Static) method; for speed of sound: Spherical resonator

O=C(C(F)(F)C(F)(F)F)C(F)(C(F)(F)F)C(F)(F)F [dodecafluoro-2-methylpentan-3-one]
Conditions | mass density [kg/m3] | speed of sound [m/s]
400.01 K, 16056 kPa, Liquid | 1413.68 | –
400.01 K, 24343 kPa, Liquid | 1465.04 | –
400.05 K, 54.88 kPa, Gas | – | 102.64
400.05 K, 54.92 kPa, Gas | – | 102.64
400.05 K, 154.66 kPa, Gas | – | 99.83
400.05 K, 252.99 kPa, Gas | – | 96.94
400.05 K, 354.19 kPa, Gas | – | 93.75
400.05 K, 451.42 kPa, Gas | – | 90.4
400.05 K, 554.73 kPa, Gas | – | 86.45
400.05 K, 667.8 kPa, Gas | – | 81.52
402 K, 14323 kPa, Liquid | 1395.32 | –
410.01 K, 16854 kPa, Liquid | 1394.24 | –
420 K, 19987 kPa, Liquid | 1392.85 | –
420.02 K, 6075.7 kPa, Liquid | 1241.69 | –
425.04 K, 60.31 kPa, Gas | – | 105.94
425.04 K, 144.61 kPa, Gas | – | 104
425.04 K, 258 kPa, Gas | – | 101.36
425.04 K, 399.11 kPa, Gas | – | 97.86
425.04 K, 546.05 kPa, Gas | – | 93.91
425.04 K, 696.35 kPa, Gas | – | 89.45
425.04 K, 845.73 kPa, Gas | – | 84.47
425.04 K, 951.86 kPa, Gas | – | 80.49
425.04 K, 1061.7 kPa, Gas | – | 75.84
429.99 K, 8117.7 kPa, Liquid | 1240.57 | –
430.02 K, 23113 kPa, Liquid | 1391.48 | –
440 K, 10172 kPa, Liquid | 1239.42 | –
440.01 K, 26214 kPa, Liquid | 1390.14 | –
449.97 K, 1492 kPa, Gas | – | 74.05
449.98 K, 99.8 kPa, Gas | – | 108.43
449.98 K, 296.98 kPa, Gas | – | 104.72
449.98 K, 499.37 kPa, Gas | – | 100.64
449.98 K, 701.04 kPa, Gas | – | 96.26
449.98 K, 901.63 kPa, Gas | – | 91.5
449.98 K, 1104.8 kPa, Gas | – | 86.19
449.98 K, 1292.1 kPa, Gas | – | 80.71
449.98 K, 1680.8 kPa, Gas | – | 66.68
450 K, 12226 kPa, Gas | 1238.27 | –
450.01 K, 394.1 kPa, Gas | 35.895 | –
450.01 K, 913.4 kPa, Gas | 93.929 | –
450.01 K, 1478.4 kPa, Gas | 185.135 | –
450.01 K, 2042.6 kPa, Gas | 417.845 | –
450.01 K, 2500.6 kPa, Gas | 856.702 | –
450.01 K, 2998.2 kPa, Gas | 943.857 | –
450.01 K, 3997.1 kPa, Gas | 1026.46 | –
450.01 K, 4993.9 kPa, Gas | 1075.63 | –
450.01 K, 5983.6 kPa, Gas | 1111.42 | –
450.01 K, 8215.2 kPa, Gas | 1169.39 | –
450.01 K, 12010 kPa, Gas | 1235.17 | –
450.01 K, 15954 kPa, Gas | 1283.62 | –
450.01 K, 19948 kPa, Gas | 1321.88 | –
450.01 K, 29286 kPa, Gas | 1388.75 | –
460 K, 14282 kPa, Gas | 1237.17 | –
469.99 K, 2186.2 kPa, Gas | 306.462 | –
469.99 K, 2797.9 kPa, Gas | 560.84 | –
469.99 K, 3424.1 kPa, Gas | 779.472 | –
469.99 K, 6087.4 kPa, Gas | 1018.11 | –
470 K, 680 kPa, Gas | 61.543 | –
470 K, 1356.4 kPa, Gas | 142.264 | –
470 K, 4374.3 kPa, Gas | 910.538 | –
470 K, 7969.1 kPa, Gas | 1085.6 | –
470 K, 9768.9 kPa, Gas | 1131.11 | –
470 K, 11977 kPa, Gas | 1173.86 | –
470 K, 14031 kPa, Gas | 1205.91 | –
470 K, 16332 kPa, Gas | 1236.02 | –
475.01 K, 147.79 kPa, Gas | – | 110.98
475.01 K, 349.5 kPa, Gas | – | 107.83
475.01 K, 501.76 kPa, Gas | – | 105.38
475.01 K, 501.77 kPa, Gas | – | 105.38
475.01 K, 501.78 kPa, Gas | – | 105.38
475.01 K, 501.8 kPa, Gas | – | 105.38
475.01 K, 697.46 kPa, Gas | – | 102.08
475.01 K, 898.52 kPa, Gas | – | 98.51
475.01 K, 1150.9 kPa, Gas | – | 93.77
475.01 K, 1296.2 kPa, Gas | – | 90.92
475.01 K, 1496.6 kPa, Gas | – | 86.78
475.01 K, 1685 kPa, Gas | – | 82.69
500.01 K, 103.24 kPa, Gas | – | 114.77
500.01 K, 301.45 kPa, Gas | – | 112.25
500.01 K, 502.44 kPa, Gas | – | 109.63
500.01 K, 502.55 kPa, Gas | – | 109.63
500.01 K, 502.62 kPa, Gas | – | 109.63
500.01 K, 502.7 kPa, Gas | – | 109.63
500.01 K, 502.81 kPa, Gas | – | 109.64
500.01 K, 503 kPa, Gas | – | 109.64
500.01 K, 703.51 kPa, Gas | – | 106.95
500.01 K, 893.84 kPa, Gas | – | 104.33
500.01 K, 1100.4 kPa, Gas | – | 101.42
500.01 K, 1100.8 kPa, Gas | – | 101.42
500.01 K, 1308.1 kPa, Gas | – | 98.44
500.01 K, 1503.6 kPa, Gas | – | 95.59
500.01 K, 1746.5 kPa, Gas | – | 92
500.02 K, 1746.7 kPa, Gas | – | 92
500.02 K, 1746.9 kPa, Gas | – | 91.99

Liquid
Conditions | vapor or sublimation pressure
400.01 K | 826 kPa
410.02 K | 1016 kPa
410.03 K | 1014.3 kPa
420.02 K | 1238.2 kPa and 1238.3 kPa

Reference: the NIST ThermoML archive (doi:10.1021/acs.jced.5b00623)
